# Source: patent publication US20110070258A1, “METHOD OF SLOWING THE AGING PROCESS BY ACTIVATING SIRTUIN ENZYMES” (Polifenoles Naturales, S.L., priority 2009, published 2011)
# Legend:
# [1] = Energy expenditure by indirect calorimetry in obese subjects (dose-response clinical trial); format: in vivo, human; settings: for Energy Expenditure, Baseline: n = 4; for Energy Expenditure, Baseline / Energy Expenditure, 2 weeks / Energy Expenditure, 5 weeks / Energy Expenditure, 10 weeks / Energy Expenditure, 16 weeks / Total Energy Expenditure, to (16 weeks) / Total Energy Expenditure, From (baseline) / Change in Total Energy Expenditure, Net: NAFLD; for Change in Total Energy Expenditure, Net: baseline to 16 weeks
# Protocol: Energy expenditure rate (EER) was measured in patients by indirect calorimetry. Oxygen was measured with an electrochemical oxygen sensor, and carbon dioxide was measured with an infrared carbon dioxide sensor (Ametec Carbon Dioxide Analyzer). Before each measurement, the instrument was calibrated with a mixture of O2 and CO2 gases. Rates of oxygen consumption (O2) and carbon dioxide production (CO2) were calculated and printed out at 1-min intervals. Energy expenditure was derived from O2 and CO2 values.
# Obese subjects diagnosed with NAFLD and with apparently healthy liver (HL) were matched in pairs based on age, body weight and body fat mass and were randomly divided into Experimental NAFLD group (n=36), Placebo NAFLD (n=36), Experimental HL (n=19) and Placebo-HL group (n=19). Subjects were randomly assigned, in equal numbers, to the phytomedicine experimental groups and the Placebo control group, using the Simple Randomization Procedure. Their daily dietary intake was restricted to 1800±100 kcals, of which 50±5% was in the form of carbohydrates, 30±5% from protein, and 20±5% from fat. Subjects were also instructed to consume all the foods and beverages designated by dieticians and provided by the Institute, and to eat no other food or high calories beverages. […] During the clinical phase, subjects were required to visit a designated hospital three times a week for physiological and biochemical analysis. Institute provided all foods and beverages by designated dieticians and labeled as B, L, and D for breakfast, lunch and dinner, respectively.
# The brown marine vegetable extract was suspended in 100 mg cold-pressed pomegranate seed oil. The pomegranate seed oil was standardized to contain a minimum of 70% punicic acid, for a total weight of 200 mg/capsule. The content of fucoxanthin in Experimental Sample (Xanthigen) was analyzed using high performance liquid chromatography method, and the fatty acids were analyzed by Gas Chromatography method. The HPLC profile of the brown marine vegetable extract is shown in FIG. 2A, along with an HPLC chromatogram of pure fucoxanthin for comparison in FIG. 2B.
# Energy expenditure (EE) and substrate oxidations were measured by indirect calorimetry as described previously (Ranneries et al., 1998). Oxygen was measured with an electrochemical oxygen sensor, and carbon dioxide was measured by an infrared carbon dioxide sensor (Ametec Carbon Dioxide Analyzer). Calculations of EE and substrate oxidation rates were performed as previously described (Astrup et al., 1991). Protein oxidation was assumed to be constant and amounting to 15% of EE. […] The reliability was assessed by the coefficient of variation on resting energy expenditure repeated every week.
# [2] = test system: Sirt1; assay: Sirt1 expression by Western Blot in differentiated 3T3-L1 adipocytes; format: cell-based, mouse
# Protocol: The effect of fucoxanthin/punicic acid mixtures on Sirt1 expression in murine cells was studied. Mouse 3T3-L1 pre-adipocytes purchased from the American Type Culture Collection (Rockville, Md.) were grown in Dubecco's modified Eagle's medium (DMEM) (Gibco BRL, Grand Island, N.Y.) supplemented with 2 mM glutamine (GIBCO BRL), 1% penicillin/streptomycin (10000 units of penicillin/mL and 10 mg streptomycin/mL) and 10% fetal bovine serum at 37° C. under a humidified 5% CO2 atmosphere. For differentiation of 3T3-L1 pre-adipocytes, cells were seeded into 6-well culture plates (2×10^4/mL) and cultured as described above. […] The fucoxanthin extract used in this study of Sirt1 expression in murine cells was an extract of the complete plant of Undaria […]. The extract contains 0.8% by weight fucoxanthin and 30% by weight marine vegetable oil. The fucoxanthin extract used may further contain ≦10.0 wt. % palm oil. The pomegranate seed oil used in this study contains 70 wt. % punicic acid, and is an extract of the seeds of the Punica granatum plant. […], the fucoxanthin/punicic acid mixture used in this study, contains 50 wt. % of the fucoxanthin extract, and 50 wt. % of the pomegranate seed oil. […] The total proteins are measured by Bio-Rad Protein Assay (Bio-Rad Laboratories, Munich, Germany). […]
structure (smiles),measurement,setting,value
"CC(=O)O[C@H]1CC(C)(C)C(=C=C/C(C)=C/C=C/C(C)=C/C=C/C=C(C)/C=C/C=C(\C)C(=O)C[C@@]23O[C@]2(C)C[C@@H](O)CC3(C)C)[C@](C)(O)C1 [Fucoxanthin, fucoxanthin]",increase in daily energy expenditure rate,[1]; 25 mg fucoxanthin alone,1152 ± 290 kJ/day
same,"Energy Expenditure, Baseline",[1]; Fucoxanthin 10 mg per day,5.82 ± 0.18 kJ/min
same,"Energy Expenditure, 2 weeks",[1]; Fucoxanthin 10 mg per day,5.69 ± 0.21 kJ/min
same,"Energy Expenditure, 5 weeks",[1]; Fucoxanthin 10 mg per day,5.93 ± 0.15 kJ/min
same,"Energy Expenditure, 10 weeks",[1]; Fucoxanthin 10 mg per day,5.69 ± 0.21 kJ/min
same,"Energy Expenditure, 16 weeks",[1]; Fucoxanthin 10 mg per day,5.98 ± 0.18 kJ/min
same,"Total Energy Expenditure, to (16 weeks)",[1]; Fucoxanthin 10 mg per day,8611 kJ/24 h
same,"Total Energy Expenditure, From (baseline)",[1]; Fucoxanthin 10 mg per day,8381 kJ/24 h
same,"Change in Total Energy Expenditure, Net","[1]; Fucoxanthin 10 mg per day, NS vs placebo",Net 230 ± 147 kJ/24 h
same,"Energy Expenditure, Baseline",[1]; Fucoxanthin 15 mg per day,5.85 ± 0.27 kJ/min
same,"Energy Expenditure, 2 weeks",[1]; Fucoxanthin 15 mg per day,5.89 ± 0.14 kJ/min
same,"Energy Expenditure, 5 weeks",[1]; Fucoxanthin 15 mg per day,5.98 ± 0.17 kJ/min
same,"Energy Expenditure, 10 weeks",[1]; Fucoxanthin 15 mg per day,6.11 ± 0.21 kJ/min
same,"Energy Expenditure, 16 weeks",[1]; Fucoxanthin 15 mg per day,6.39 ± 0.17 kJ/min
same,"Total Energy Expenditure, to (16 weeks)",[1]; Fucoxanthin 15 mg per day,9202 kJ/24 h
same,"Total Energy Expenditure, From (baseline)",[1]; Fucoxanthin 15 mg per day,8424 kJ/24 h
same,"Change in Total Energy Expenditure, Net","[1]; Fucoxanthin 15 mg per day, p < 0.05 vs placebo",Net 778 ± 260 kJ/24 h
same,"Energy Expenditure, Baseline",[1]; Fucoxanthin 25 mg per day,5.92 ± 0.16 kJ/min
same,"Energy Expenditure, 2 weeks",[1]; Fucoxanthin 25 mg per day,6.02 ± 0.23 kJ/min
same,"Energy Expenditure, 5 weeks",[1]; Fucoxanthin 25 mg per day,5.92 ± 0.27 kJ/min
same,"Energy Expenditure, 10 weeks",[1]; Fucoxanthin 25 mg per day,6.29 ± 0.31 kJ/min
same,"Energy Expenditure, 16 weeks",[1]; Fucoxanthin 25 mg per day,6.72 ± 0.22 kJ/min
same,"Total Energy Expenditure, to (16 weeks)",[1]; Fucoxanthin 25 mg per day,9677 kJ/24 h
same,"Total Energy Expenditure, From (baseline)",[1]; Fucoxanthin 25 mg per day,8525 kJ/24 h
same,"Change in Total Energy Expenditure, Net","[1]; Fucoxanthin 25 mg per day, p < 0.05 vs placebo",Net 1152 ± 290 kJ/24 h
same,"Energy Expenditure, Baseline",[1]; Fucoxanthin 50 mg per day,6.04 ± 0.24 kJ/min
same,"Energy Expenditure, 2 weeks",[1]; Fucoxanthin 50 mg per day,5.91 ± 0.31 kJ/min
same,"Energy Expenditure, 5 weeks",[1]; Fucoxanthin 50 mg per day,6.32 ± 0.22 kJ/min
same,"Energy Expenditure, 10 weeks",[1]; Fucoxanthin 50 mg per day,6.92 ± 0.31 kJ/min
same,"Energy Expenditure, 16 weeks",[1]; Fucoxanthin 50 mg per day,7.37 ± 0.35 kJ/min
same,"Total Energy Expenditure, to (16 weeks)",[1]; Fucoxanthin 50 mg per day,10613 kJ/24 h
same,"Total Energy Expenditure, From (baseline)",[1]; Fucoxanthin 50 mg per day,8698 kJ/24 h
same,"Change in Total Energy Expenditure, Net","[1]; Fucoxanthin 50 mg per day, p < 0.001 vs placebo",Net 1915 ± 246 kJ/24 h
same,EER,[1]; fucoxanthin dose of 1.6 mg per se,not effective per se
same,"minimum effective dose (increase of EER), stand alone","[1]; obese subjects, stand alone",2.4 mg
"CCCC\C=C/C=C/C=C\CCCCCCCC(=O)O [punicic acid, 9-cis, 11-trans conjugated linolenic acid (9c,11t,13c-CLNA)]",Effect on Sirt1 protein levels / expression,[2],suppresses Sirt1 expression
